Where no end group is shown, it is not given here.
Key:
Type in all cases: cell-based
[1] = system: A549 (lung cancer cell line)
Source text: (§1) In order to confirm the anticancer activity of the analogues prepared by Example 1 on A549 (lung cancer cell line, ATCC, U.S.A.), A498 (kidney cancer cell line, Korean Cell Line Bank, Korea), HCT116 (colon carcinoma cell line, Korean Cell Line Bank, Korea), MKN45 (stomach cell line, Korean Cell Line Bank, Korea), NCI-H630 (liver cancer cell line, Korean Cell Line Bank, Korea), PC-3 (prostatic carcinoma cell line, Korean Cell Line Bank, Korea), SK-MEL-2 (skin cancer cell line, Korean Cell Line Bank, Korea) and SK-OV-3 (human solid cancer cell line, Korean Cell Line Bank, Korea), the standard microculture MTT method was performed with the procedure described in the literature (Angelina Quintero et al., J Pharm Pharmaceut Sci, Vol. 2, No. 3, pp 108-112, 1999; Ashtosh K. Pathak et al., J. Am Coll Nutr., Vol. 21, No. 5, pp 416-421, 2002). Each cell line was poured into 96 well microtiter plates and cultivated at 37° C. for 24 hrs. When the cell reached to exponential growth phase, the test sample was added to each plates and each cell was inoculated into the plates added with both of dissolved and non-dissolved DMSO to culture for 3 days. 50 μl of MTT (2 mg/ml) (M5655, SIGMA, U.S.A.) was added thereto and cultured for 3 hrs. The supernatant was removed and the wells were shaken weakly to dissolve formazan crystals. 150 μl of DMSO was added thereto. The non-treated well with cell was set to blank and the wells non-treated with drug were set to standard based on the cell viability. The UV absorbance was measured by microplate reader (SAFIRE, Tecan, Austria) to calculate the cell viability at 570 nm. The inhibition rate of cell growth was calculated by following Math FIG. 1. inhibition rate of cell growth (%)={1−(absorbance of treated cells/absorbance of non-treated cells)}×100 Math Figure 1 The IC value of each cell was calculated by the amount of drug causing to 50% reduction of the absorbance comparing with that of non-treated cells.

[2] = system: HCT116 (colon carcinoma cell line)
Source text: as §1

[3] = system: MKN45 (stomach cell line)
Source text: as §1

[4] = system: SK-MEL-2 (skin cancer cell line)
Source text: as §1

[5] = system: SK-OV-3 (human solid cancer cell line)
Source text: as §1

erythrocyte = system: erythrocyte
Protocol: 3 ml of blood sample collected from healthy male was mixed with PBS (phosphate buffered saline, isotonic solution) with a ratio of 1:1 (v/v), centrifuged to remove buffy coat and blood plasma and washed with physiological saline solution three times to isolate pure erythrocyte. The erythrocyte was suspended in 20 ml of PBS and pre-incubated in water bath at 37° C. for 15 mins. […] of peptide solution was mixed with […] of erythrocyte solution in order to prepare various mixed solution containing various final concentrations of the peptides, i.e., 100, 50, […] and the solution was incubated in water bath at 37° C. for 15 mins. The supernatant was centrifuged with centrifuge and 100 ml of the supernatant was diluted with ImI of PBS to determine its absorbance at 550 nm. The percentage of hemolysis (%) was determined from the relative attenuation of the absorbance of sample compared with that of the suspension treated with 0.2% Triton X-100.

Bacillus subtilis = assay: Antimicrobial activity, MIC by standard broth microdilution; details: Gram-positive
Protocol: (§2) Antimicrobial activity was determined by the standard broth microdilution method by measuring the MIC values against diverse microorganisms. In brief, Luria-Bertani medium was used as a broth medium. 30 μl of sample (2 mg/ml) prepared from Example 1 and 270 μl of fluid medium were added to lane 1 well of 96-well microtiter plates and to remaining lanes of the wells, only 150 μl of medium was added thereto. 150 μl of sample solution in lane 1 was mixed with lane 2 to prepare diluted solution (×2). With similar diluting method to the above described method, serial dilution was performed to prepare 150 μl of diluted drug solution (×2) to the extent that the final drug concentration reached to the range from 1.6 to 200 μg/ml in respective well. 25 μl of the cell culture being grown to 10^6-10^8 colony forming unit/ml in 3 ml of broth was added to each well and the micro-titer plate was incubated for overnight at 37° C.

Escherichia coli = assay: as above; details: Gram negative
Protocol: as §2

Klebsiella pneumoniae = assay: as above; details: Gram negative
Protocol: as §2

Micrococcus luteus = assay: as above; details: Gram-positive
Protocol: as §2

Proteus mirabilis = assay: as above; details: Gram negative
Protocol: as §2

Pseudomonas aeruginosa = assay: as above; details: Gram negative
Protocol: as §2

Salmonella typhimurium = assay: as above; details: Gram negative
Protocol: as §2

Shigella dysentariae = assay: as above; details: Gram negative
Protocol: as §2

Staphylococcus aureus = assay: as above; details: Gram-positive
Protocol: as §2

Staphylococcus epidermis = assay: as above; details: Gram-positive
Protocol: as §2

“FLWWLFKWAWK-NH2 [model 28, F-L-W-W-L-F-K-W-A-W-K]” gave an IC50 [1] of 15.9 µM, an IC50 [2] of 14.8 µM and an IC50 [3] of 13.8 µM. For the same substance, the IC50 [4] was 13.2 µM and the IC50 [5] was 14.6 µM.
In the case of “FLGWLFKWASKVL-NH2 [W4,8-GGN5N13, F-L-G-W-L-F-K-W-A-S-K-V-L]”, the “hemolytic activity (in words)” value (erythrocyte) is reported as “potent hemolytic activity”.
For “FLGWLFKWAWK-NH2 [model 27, F-L-G-W-L-F-K-W-A-W-K]”, the IC50 [4] was 14 µM.
“FLGWLFKWASK-NH2 (C-terminus assumed) [W4,8-GGN5N11]” was tested, and the Minimal inhibitory concentration (Bacillus subtilis) was 3.2 µg/mL, the Minimal inhibitory concentration (Escherichia coli) was 50 µg/mL and the Minimal inhibitory concentration (Klebsiella pneumoniae) was 50 µg/mL. The Minimal inhibitory concentration (Micrococcus luteus) was 3.2 µg/mL, the Minimal inhibitory concentration (Proteus mirabilis) was >200 µg/mL and the Minimal inhibitory concentration (Pseudomonas aeruginosa) was >200 µg/mL. For the same substance, the Minimal inhibitory concentration (Salmonella typhimurium) was >200 µg/mL, the Minimal inhibitory concentration (Shigella dysentariae) was 12.5 µg/mL and the Minimal inhibitory concentration (Staphylococcus aureus) was 1.6 µg/mL. It also gave a Minimal inhibitory concentration (Staphylococcus epidermis) of 3.2 µg/mL.
With “FLKWLFKWAKK-NH2 [model 26, F-L-K-W-L-F-K-W-A-K-K]” the “hemolytic activity (in words)” value (erythrocyte) was “much less hemolysis than the others”, the IC50 [1] was 14.5 µM and the IC50 [2] was 14.8 µM. It also gave an IC50 [5] of 12.6 µM.
